Source: ChEMBL document CHEMBL5236551, “Andrographolide and its derivatives: Current achievements and future perspectives” (Eur J Med Chem, 2021)
Blank lines part the entries; values can stand above or below the compound they belong to.

What was measured:
[1] = system: Mus musculus; assay: Anti-inflammatory activity in BALB/c mouse model of colitis assessed as suppression of DSS-induced NF-kappa-B p65 expression in colon tissue at 200 mg/kg, IG for 8 days relative to control; assay type: functional; settings: po, 192 h, time 8 day
[2] = Inhibition of NF-kappa-B signaling pathway in human HeLa cells assessed as decrease in phosphorylated NF-kappaB p65 level treated for 4 hrs by Western blot analysis; assay type: cell-based
[3] = system: Enterococcus faecalis; assay: Antibacterial activity against Enterococcus faecalis assessed as bacterial growth inhibition incubated for 24 hrs; assay type: functional, organism-based
[4] = system: Staphylococcus aureus; assay: Antibacterial activity against Staphylococcus aureus assessed as bacterial growth inhibition incubated for 24 hrs; assay type: functional, organism-based
[5] = system: Escherichia coli; assay: Antibacterial activity against Escherichia coli assessed as bacterial growth inhibition incubated for 24 hrs; assay type: functional, organism-based
[6] = system: Human immunodeficiency virus 1; assay: Antiviral activity against HIV-1 infected in human C8166 cells; assay type: functional, organism-based; settings: Human immunodeficiency virus 1, C8166
[7] = system: Rattus norvegicus; assay: Anti-fibrotic activity in rat model of isoproterenol-induced myocardial fibrosis assessed as inhibition rate at 15 mg/kg relative to control; assay type: functional; settings: Myocardium
[8] = system: Rattus norvegicus; assay: Anti-fibrotic activity in rat model of bleomycin-induced lung fibrosis assessed as inhibition rate at 250 mg/kg relative to control; assay type: functional
[9] = system: Rattus norvegicus; assay: Anti-fibrotic activity in rat model of unilateral ureteral obstruction-induced renal fibrosis assessed as inhibition rate at 0.15 mmol/Kg relative to control; assay type: functional; settings: Kidney
[10] = system: Col2; assay: Cytotoxicity against human Col2 cells assessed as cell growth inhibition by SRB assay; assay type: functional; settings: read-out: ED50 (the source's name)
[11] = Cytotoxicity against rat ASK cells assessed as cell growth inhibition by SRB assay; assay type: functional; settings: read-out: ED50 (the source's name)
[12] = system: P388; assay: Cytotoxicity against mouse P388 cells assessed as cell growth inhibition by SRB assay; assay type: functional; settings: read-out: ED50 (the source's name)
[13] = system: KB; assay: Cytotoxicity against human KB cells assessed as cell growth inhibition by SRB assay; assay type: functional; settings: read-out: ED50 (the source's name)
[14] = system: MCF7; assay: Cytotoxicity against human MCF7 cells assessed as cell growth inhibition by SRB assay; assay type: functional; settings: read-out: ED50 (the source's name)
[15] = Cytotoxicity against human Lu1 cells assessed as cell growth inhibition by SRB assay; assay type: functional; settings: read-out: ED50 (the source's name)
[16] = Inhibition of TGF-beta1 induced mesenchymal transformation in human A549 cells assessed as inhibition rate at 0.63 uM relative to control; assay type: functional
[17] = Antimigratory activity against Ang II-induced human Cardiac fibroblast cells assessed as inhibition rate at 0.63 uM relative to control; assay type: functional
[18] = Antimigratory activity against human LX2 cells assessed as inhibition rate at 5 uM relative to control; assay type: functional; settings: LX-2
[19] = system: K562; assay: Antiproliferative activity against human K562 cells assessed as cell growth inhibition measured after 24 hrs by MTT assay; assay type: functional, cell-based; settings: K562, 24 h
[20] = system: MCF7; assay: Antiproliferative activity against human MCF7 cells assessed as cell growth inhibition measured after 24 hrs by MTT assay; assay type: functional, cell-based
[21] = system: Rattus norvegicus; assay: Anti-inflammatory activity against egg white-induced paw edema in rat model assessed as detumescence rate measured after 6 hrs relative to control; assay type: functional
[22] = system: HCT-116; assay: Antiproliferative activity against human HCT-116 cells assessed as cell growth inhibition measured after 24 hrs by MTT assay; assay type: functional
[23] = system: J82; assay: Antiproliferative activity against human J82 cells assessed as cell growth inhibition measured after 48 hrs by MTT assay; assay type: functional, cell-based; settings: J82, 48 h
[24] = system: HepG2; assay: Antiproliferative activity against human HepG2 cells assessed as cell growth inhibition measured after 48 hrs by MTT assay; assay type: functional, cell-based; settings: HepG2, 48 h
[25] = system: MCF7; assay: Antiproliferative activity against human MCF7 cells assessed as cell growth inhibition measured after 48 hrs by MTT assay; assay type: functional, cell-based; settings: MCF7, 48 h
[26] = system: T-24; assay: Antiproliferative activity against human T24 cells assessed as cell growth inhibition measured after 48 hrs by MTT assay; assay type: functional, cell-based; settings: T-24, 48 h
[27] = Antiproliferative activity against human NTUB1 cells assessed as cell growth inhibition measured after 48 hrs by MTT assay; assay type: functional, cell-based; settings: NTUB1, 48 h
[28] = Antiproliferative activity against human HCT cell line assessed as cell growth inhibition measured after 48 hrs by MTT assay; assay type: functional, cell-based
[29] = system: NB-4; assay: Antiproliferative activity against human NB-4 cells assessed as cell growth inhibition measured after 48 hrs by MTT assay; assay type: functional, cell-based; settings: NB-4, 48 h
[30] = system: MGC-803; assay: Antiproliferative activity against human MGC-803 cells assessed as cell growth inhibition measured after 48 hrs by MTT assay; assay type: functional, cell-based; settings: MGC-803, 48 h
[31] = system: A549; assay: Antiproliferative activity against human A549 cells assessed as cell growth inhibition measured after 48 hrs by MTT assay; assay type: functional, cell-based; settings: A549, 48 h

Compound: C=C1CCC2[C@](C)(COC(C)=O)[C@H](OC(C)=O)CC[C@@]2(C)[C@@H]1C/C=C1/C(=O)OC[C@H]1OC(C)=O (stereo partly specified)
inhibition in vivo at 200 mg/kg [1]: 50.4%

EC50 [2]: 2 µM
Compound: C=C1CC[C@@H]2[C@](C)(CO)[C@H](O)CC[C@@]2(C)[C@@H]1C/C=C1/C(=O)OC[C@@H]1Oc1ccc([N+](=O)[O-])cc1OC

Compound: C=C1CCC2[C@](C)(CO)C(=O)CC[C@@]2(C)[C@@H]1C/C=C1/C(=O)OC[C@@H]1Oc1cccc2cccnc12 (stereo partly specified)
IC50 [3]: 9.1 µM
IC50 [4]: 27.6 µM
IC50 [5]: 27.9 µM

IC50 [6]: 40.9 µM
Compound: C=C1CCC2[C@](C)(CO)/C(=N\O)CC[C@@]2(C)[C@@H]1/C=C/C1=CCOC1=O (stereo partly specified)

Compound: C=C1CCC2[C@](C)(CO)[C@H](O)CC[C@@]2(C)[C@@H]1/C=C/C1=CC(=C\c2ccc(Cl)cc2)/OC1=O (stereo partly specified)
inhibition in vivo at 15 mg/kg [7]: > 90%
inhibition in vivo at 250 mg/kg [8]: > 85%
inhibition in vivo at 150 µmol/kg [9]: > 85%

Compound: C=C1CC[C@@H]2[C@](C)(CO[Si](C)(C)C(C)(C)C)[C@H](OC(C)=O)CC[C@@]2(C)[C@@H]1CC(OC(C)=O)C1=CCOC1=O (stereo partly specified)
EC50 [10]: 2 µM
EC50 [11]: 1.98 µM
EC50 [12]: 0.55 µM
EC50 [13]: 2.35 µM
EC50 [14]: 2.13 µM
EC50 [15]: 2.09 µM

Compound: C[C@@]12CCC3[C@](C)(CO)[C@H](O)CC[C@@]3(C)[C@@H]1CC(C1=C/C(=C\c3ccc(Cl)cc3)OC1=O)O2 (stereo partly specified)
inhibition at 0.63 µM [16]: > 70%
inhibition at 0.63 µM [17]: > 65%
inhibition at 5 µM [18]: > 60%

Compound: C=C1CCC2[C@](C)(CO)[C@H](O)CC[C@@]2(C)[C@@H]1C/C=C1/C(=O)OC[C@@H]1Oc1cccc2cccnc12 (stereo partly specified)
IC50 [3]: 6.3 µM
IC50 [4]: 37.5 µM
IC50 [5]: 21.6 µM

IC50 [19]: 8 µM
Compound: C=C1CCC2[C@]3(C)COC(c4ccc(OCc5cn(-c6ccc(C(C)=O)cc6)nn5)cc4)O[C@@H]3CC[C@@]2(C)[C@@H]1C/C=C1/C(=O)OCC1O (stereo partly specified)

IC50 [19]: 1.55 µM
IC50 ([20]; MCF7, 24 h): 2.91 µM
Compound: C=C1CCC2[C@](C)(CO)[C@H](OC(=O)CCC(=O)OC(C)CCOc3no[n+]([O-])c3S(=O)(=O)c3ccccc3)CC[C@@]2(C)[C@@H]1/C=C/C1=CCOC1=O (stereo partly specified)

Compound: C=C1CCC2[C@](C)(CO)[C@H](O)CC[C@@]2(C)[C@@H]1CCC1=CCOC1=O (stereo partly specified)
inhibition (INH) [21]: 87.53%

GI50 ([20]; MCF7, time 24 hrs): 5.3 µM
GI50 [22]: 4.9 µM
Compound: C=C1CCC2[C@]3(C)COC(c4ccccc4Br)O[C@@H]3CC[C@@]2(C)[C@@H]1C/C=C1/C(=O)OC[C@H]1O (stereo partly specified)

IC50 [24]: 2.31 µM
IC50 [25]: 1.21 µM
IC50 [30]: 1.85 µM
IC50 [31]: 2.03 µM
Compound: CC1=C2[C@H]3O[C@]34CC[C@@H]3[C@](C)(COC(=O)c5ccccc5)[C@H](OC(=O)c5ccccc5)CC[C@@]3(C)[C@@H]4[C@H]3O[C@@]23OC1=O
IC50 [23]: 2.04 µM
IC50 [26]: 1.04 µM
IC50 [27]: 0.55 µM
IC50 [28]: 0.94 µM
IC50 [29]: 0.87 µM
